Test results published in patent US5955337A, “DNA encoding GLS1” (Merck & Co., Inc., priority 1996, dated 1999).
Where two headings read alike, the source gives them in different places. *1 amine or outer side, *2 acyl side, *3 side chain or, on linkers, in order; H or OH if unused. Where a SMILES comes first, the peptide text is derived from it. Bridges are numbered along the chain shown (N, C = ends). [ ]: non-standard residue; d: D form. The star is where a group is joined. dOrn(4R-OH,5R-OH) = O=C([C@@H](C[C@@H](O)[C@@H](O)N[*:3])N[*:1])[*:2]; Tetradecanoyl(10R,12S-Me2) = CC[C@H](C)C[C@H](C)CCCCCCCCC(=O)*; hTyr(3S-OH,4S-OH) = N[C@H](C(=O)O)[C@H](O)[C@@H](O)c1ccc(O)cc1; Pro(3S-OH,4S-Me) = C[C@H]1CN[C@H](C(=O)O)[C@H]1O; Gln(3R-OH) = NC(=O)C[C@@H](O)[C@H](N)C(=O)O; Hyp = O=C(O)[C@@H]1C[C@@H](O)CN1

Tests used:
MS1 (gls1-1) = assay: Zone of growth inhibition assay, gls1-1 mutant; type: cell-based, Saccharomyces cerevisiae; settings: μg/Disc: L,733-560 20; L-688-786 10; Aculeacin 50; Papulacandin 50; Nikkomycin Z 10; Rapamycin 12.5
Excerpt: (§1) Mutations of the GLS1 gene, including but not limited to gls1-1 (strain MS1), gls1-2 (strain MS41) and gls1-3 (strain MS43), or disruptions or deletions of GLS1, are useful for screening for glucan synthase inhibitors. Such a screen relies on the increase in echinocandin-resistance and in papulacandin sensitivity of such mutants compared to an GLS1 wild-type strain. Any technique capable of detecting this difference in sensitivity can be used. A zone of inhibition assay on agar plates is particularly useful.
(§2) The GLS1 and the fks1-4 mutants can be incorporated into an assay to screen and classify antifungal compounds with chitin and glucan synthase inhibitory effects, based on their differential resistance/sensitivity to the echinocandins, papulacandin and Nikkomycin Z. The data from this assay and the sizes of the zones of growth inhibition in millimeter is given in the following table: […]

MS14 (fks1-4) = assay: Zone of growth inhibition assay, fks1-4 mutant; type: cell-based, Saccharomyces cerevisiae; settings: μg/Disc: L,733-560 20; L-688-786 10; Aculeacin 50; Papulacandin 50; Nikkomycin Z 10; Rapamycin 12.5
Excerpt: as §1, §2

X2180 (WT) = assay: Zone of growth inhibition assay, wild-type strain; type: cell-based, Saccharomyces cerevisiae; settings: μg/Disc: L,733-560 20; L-688-786 10; Aculeacin 50; Papulacandin 50; Nikkomycin Z 10; Rapamycin 12.5
Excerpt: as §1, §2

Pneumocystis carinii = settings: rat model of P. carinii pneumonia; Schmatz et al. 1990; cited from earlier work
[1] = tested on: Strain MS1 (gls1-1 mutant); assay: Effect of antifungal drugs on strain MS1 relative to wild-type parental strain; type: cell-based, Saccharomyces cerevisiae; settings: FIG. 2, FIG. 10
Description: To quantitate the echinocandin sensitivity/resistance of the mutant strains, yeast cells grown to log phase were inoculated into 2 ml SC broth and incubated overnight at 28° C. A flat bottom 96-well microtiter plate was seeded with 75 μl of SC medium in columns 2 through 12. To column 1, 150 μl medium was added. Echinocandin (L-733,560) was prepared at a concentration of 30 μg/ml solution in sterile distilled water. An aliquot (75 μl) of echinocandin solution was added to column 3, and 75 μl from column 3 was transferred to column 4, followed by mixing of the contents of each well. 75 μl from column 4 was transferred into column 5, and the serial dilution was carried on to column 12 from which a 75 μl was discarded. A dilution of 6×10^5 cells/ml in URA drop out medium was prepared from the yeast strains. 75 μl cell suspension was then added to columns 2 through 12 giving 4.5×10^4 cells/well. The plates were incubated at 28° C. for 24-48 hr. Growth in the presence and absence of echinocandin was measured by absorbance at 600 nm.

1,3-β-glucan synthase = target: T1, 1,3-β-glucan synthase (Saccharomyces cerevisiae, UniProt P06780); assay: biochemical
T1 construct: Membrane extracts were prepared from mutant and wild-type cells grown to logarithmic phase; endogenous in cells; host or cells: S. cerevisiae X2180-1A (wild-type) and MS1 (gls1-1 mutant), washed 100,000×g membrane pellet
Description: Membrane extracts were prepared from mutant and wild-type cells grown to logarithmic phase (Kang and Cabib, PNAS, 83, 5808-5812, 1986). After homogenization with glass beads, unbroken cells and debris were removed by low speed centrifugation (1,000×g for 5 min). The supernatant fluids were centrifuged at 100,000×g for 60 min, and the resulting pellets were washed with 2.5 ml (per gram of wet cells) of buffer containing 0.05 M potassium phosphate (pH 7.5), 0.5 mM DTT, and 1.0 mM PMSF. The washed pellet was resuspended in the same buffer containing 5% glycerol. This protein extract served as the source for both 1,3-β-glucan synthase and the chitin synthases utilized in the enzymatic assays.
Protein concentrations were determined using BCA protein assay reagent kit (Pierce Corp.), utilizing bovine serum album (BSA; Pierce Corp.) as a standard. The 1,3-β-glucan synthase reactions were performed as previously described (Cabib, E., and M. S. Kang. 1987. Fungal 1,3-b-glucansynthase, Methods Enzymol. 138: 637-642). Briefly, an […] reaction contained 125 mM Tris HCL (pH7.5), 0.25 mM dithiothretol, 30 mM KF, 0.3 M glycerol, 0.23% BSA, 0.125 mM PMSF, 2 mM UDP-glucose, […] guanosine 5'-(g-thio) triphosphate (GTPγS), 0.1 nmol UDP-[^3 H] glucose (Amersham; 4.5 Ci/mmol;) plus […] of membrane protein extract. The reactions were performed in the presence of 0.0, 0.1, 0.5, 5, 25 and 50 mM L, 733-560 for dose titration of the drug. Following incubation at 25° C. for 150 minutes, the [^3 H]-glucose incorporated into trichloroacetic acid-insoluble material was collected onto glass fiber filters (102×258 mm) and measured using a betaplate liquid scintillation counter (Cambridge Technologies Inc.; series 2800 harvester) at 25% efficiency. The product of such reactions was verified by solubilization by laminarinase (Sigma, #L9259) but not by α-amylase (Sigma, #A2643).
To study activation of 1,3-β-glucan synthesis by GTPγS incorporation of UDP-glucose into 1,3-β-D glucans, in absence and in presence of 3.3 uM GTPγS was measured. […]

[2] = tested on: fks1-4 mutant (strain MS14); assay: Resistance/sensitivity of fks1-4 mutant relative to wild-type; type: cell-based, Saccharomyces cerevisiae; settings: fks1-4 mutant vs wild-type
Excerpt: as §2

T1 sequence (P38631 whole entry): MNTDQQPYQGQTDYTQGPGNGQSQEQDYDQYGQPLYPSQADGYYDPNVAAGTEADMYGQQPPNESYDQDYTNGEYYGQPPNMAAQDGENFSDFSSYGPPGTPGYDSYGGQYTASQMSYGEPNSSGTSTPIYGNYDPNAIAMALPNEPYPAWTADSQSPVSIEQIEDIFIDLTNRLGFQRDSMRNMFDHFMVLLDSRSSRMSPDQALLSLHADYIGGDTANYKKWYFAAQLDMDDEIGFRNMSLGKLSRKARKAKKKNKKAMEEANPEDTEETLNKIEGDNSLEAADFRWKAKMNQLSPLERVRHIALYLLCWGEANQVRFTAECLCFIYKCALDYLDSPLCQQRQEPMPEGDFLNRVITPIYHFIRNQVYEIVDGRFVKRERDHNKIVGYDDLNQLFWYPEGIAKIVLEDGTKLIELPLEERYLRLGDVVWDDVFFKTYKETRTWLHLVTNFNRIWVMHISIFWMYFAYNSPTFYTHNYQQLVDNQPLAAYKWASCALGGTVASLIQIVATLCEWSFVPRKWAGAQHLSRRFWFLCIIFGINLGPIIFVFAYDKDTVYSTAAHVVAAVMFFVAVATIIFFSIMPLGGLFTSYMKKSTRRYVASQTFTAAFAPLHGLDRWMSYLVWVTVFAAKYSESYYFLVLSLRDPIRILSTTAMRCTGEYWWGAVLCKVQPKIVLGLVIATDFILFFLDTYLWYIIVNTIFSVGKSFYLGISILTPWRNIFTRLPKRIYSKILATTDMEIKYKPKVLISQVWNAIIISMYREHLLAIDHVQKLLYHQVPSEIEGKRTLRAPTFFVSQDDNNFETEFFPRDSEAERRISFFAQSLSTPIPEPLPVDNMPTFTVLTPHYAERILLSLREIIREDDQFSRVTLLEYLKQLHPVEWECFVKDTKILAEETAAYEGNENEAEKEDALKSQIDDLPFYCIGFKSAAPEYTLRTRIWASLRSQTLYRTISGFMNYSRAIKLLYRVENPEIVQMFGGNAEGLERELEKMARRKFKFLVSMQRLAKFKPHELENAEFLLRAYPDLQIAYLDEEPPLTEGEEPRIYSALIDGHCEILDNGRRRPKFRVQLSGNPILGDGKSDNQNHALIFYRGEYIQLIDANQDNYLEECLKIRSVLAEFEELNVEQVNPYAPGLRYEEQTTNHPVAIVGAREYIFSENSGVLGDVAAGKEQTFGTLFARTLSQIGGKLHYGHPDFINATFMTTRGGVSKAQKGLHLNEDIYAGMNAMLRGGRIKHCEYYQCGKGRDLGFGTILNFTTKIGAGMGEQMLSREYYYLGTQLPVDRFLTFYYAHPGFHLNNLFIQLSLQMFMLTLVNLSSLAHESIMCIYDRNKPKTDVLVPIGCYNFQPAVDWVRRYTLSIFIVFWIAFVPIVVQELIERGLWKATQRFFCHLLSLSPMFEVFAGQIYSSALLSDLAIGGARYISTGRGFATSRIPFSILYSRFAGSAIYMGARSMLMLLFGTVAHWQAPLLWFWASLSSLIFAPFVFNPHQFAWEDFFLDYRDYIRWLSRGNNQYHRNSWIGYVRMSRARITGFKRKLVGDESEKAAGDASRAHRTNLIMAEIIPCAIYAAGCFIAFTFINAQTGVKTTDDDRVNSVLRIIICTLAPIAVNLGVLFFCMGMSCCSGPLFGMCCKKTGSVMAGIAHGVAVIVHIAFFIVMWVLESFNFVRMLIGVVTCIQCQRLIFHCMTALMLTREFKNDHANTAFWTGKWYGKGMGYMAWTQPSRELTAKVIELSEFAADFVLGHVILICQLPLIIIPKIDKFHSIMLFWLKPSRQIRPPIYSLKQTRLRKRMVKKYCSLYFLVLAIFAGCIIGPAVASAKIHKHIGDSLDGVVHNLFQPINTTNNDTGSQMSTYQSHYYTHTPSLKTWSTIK
T1 sequence (P06780 2-206): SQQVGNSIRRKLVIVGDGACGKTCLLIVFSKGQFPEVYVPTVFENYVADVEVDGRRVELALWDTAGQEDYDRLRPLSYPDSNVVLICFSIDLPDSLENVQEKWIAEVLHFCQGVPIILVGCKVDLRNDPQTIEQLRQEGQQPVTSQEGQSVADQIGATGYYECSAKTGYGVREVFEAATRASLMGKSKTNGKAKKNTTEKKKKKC

Molecule | size of the zone of growth inhibition, MS1 (gls1-1) (MS1 (gls1-1)) [millimeter] | size of the zone of growth inhibition, MS14 (fks1-4) (MS14 (fks1-4)) [millimeter] | size of the zone of growth inhibition, X2180 (WT) (X2180 (WT)) [millimeter] | reduction of the number of cysts in the lungs of infected rats (Pneumocystis carinii) | sensitivity/resistance of MS1 cells compared with wild-type parental strain [1] | response of MS1 mutant enzymatic activity to increasing concentrations of GTPγS (1,3-β-glucan synthase; MS1 mutant membranes, FIG. 5) | fold induction at 3.3 µM (1,3-β-glucan synthase; read-out: stimulation of glucan synthesis by GTPγS, MS1 mutant enzyme) | fold induction at 3.3 µM (1,3-β-glucan synthase; read-out: stimulation of glucan synthesis by GTPγS, first value) | fold more sensitive than wild-type, fks1-4 mutant (MS14) [2] [fold]
Aculeacin | 9 | 0.0 | 15 | – | – | – | – | – | –
CC[C@H](C)C[C@H](C)CCCCCCCCC(=O)N[C@@H]1C[C@@H](O)[C@@H](O)NC(=O)[C@@H]2[C@@H](O)[C@@H](C)CN2C(=O)[C@H]([C@H](O)CC(N)=O)NC(=O)[C@H]([C@H](O)[C@@H](O)c2ccc(O)cc2)NC(=O)[C@@H]2C[C@@H](O)CN2C(=O)[C@H]([C@@H](C)O)NC1=O [L-671,329] ({Tetradecanoyl(10R,12S-Me2)}-[dOrn(4R-OH,5R-OH)]T[Hyp][hTyr(3S-OH,4S-OH)][Gln(3R-OH)][Pro(3S-OH,4S-Me)]; lactam 1-C) | – | – | – | effective in reducing the number of cysts | – | – | – | – | –
CCC(O)/C=C/C=C/C=C/C(=O)OC[C@H]1O[C@@H](O[C@H]2[C@H](OC(=O)/C=C/C=C/CC(O)/C(C)=C/C=C/CCC(C)CC)[C@@H](O)[C@@]3(OCc4cc(O)cc(O)c43)O[C@@H]2CO)[C@H](O)[C@@H](O)[C@H]1O (stereo partly shown) [Papulacandin] | 20 | 10 | 10 | – | more sensitive | – | – | – | –
Nc1nc2c(ncn2[C@@H]2O[C@H](COP(=O)(O)OP(=O)(O)OP(O)(O)=S)[C@@H](O)[C@H]2O)c(=O)[nH]1 [GTPγS, guanosine 5'-(g-thio) triphosphate] | – | – | – | – | – | responded rather poorly | 6 | ~19 | –
C[C@@H]([C@H](N)C(=O)N[C@H](C(=O)O)[C@H]1O[C@@H](n2ccc(=O)[nH]c2=O)[C@H](O)[C@@H]1O)[C@H](O)c1ccc(O)cn1 [Nikkomycin Z] | 0.0 | 30.0 | 0.0 | – | – | – | – | – | 1000
CO[C@H]1C[C@@H]2CC[C@@H](C)[C@@](O)(O2)C(=O)C(=O)N2CCCC[C@H]2C(=O)O[C@H]([C@H](C)C[C@@H]2CC[C@@H](O)[C@H](OC)C2)CC(=O)[C@H](C)/C=C(\C)[C@@H](O)[C@@H](OC)C(=O)[C@H](C)C[C@H](C)/C=C/C=C/C=C/1C [Rapamycm, rapamycin] | 13 | 0.0 | 0.0 | – | more sensitive | – | – | – | –
